Each compound was assayed against T1, USP28 (USP28-5(1-1077)-TEV-6*His; LifeSensors) (Homo sapiens, UniProt Q96RU2) (assay: Ubiquitin-Rhodamine 110 Assay for USP28 Activity, Example A-1(b)). Details: Ub-Rh110 assay, Example A-1(b).
T1 construct: construct USP28 (USP28-5(1-1077)-TEV-6*His; LifeSensors); TEV cleavage site (C); 6xHis (C); purchased LifeSensors
T1 sequence (Q96RU2 1-1077): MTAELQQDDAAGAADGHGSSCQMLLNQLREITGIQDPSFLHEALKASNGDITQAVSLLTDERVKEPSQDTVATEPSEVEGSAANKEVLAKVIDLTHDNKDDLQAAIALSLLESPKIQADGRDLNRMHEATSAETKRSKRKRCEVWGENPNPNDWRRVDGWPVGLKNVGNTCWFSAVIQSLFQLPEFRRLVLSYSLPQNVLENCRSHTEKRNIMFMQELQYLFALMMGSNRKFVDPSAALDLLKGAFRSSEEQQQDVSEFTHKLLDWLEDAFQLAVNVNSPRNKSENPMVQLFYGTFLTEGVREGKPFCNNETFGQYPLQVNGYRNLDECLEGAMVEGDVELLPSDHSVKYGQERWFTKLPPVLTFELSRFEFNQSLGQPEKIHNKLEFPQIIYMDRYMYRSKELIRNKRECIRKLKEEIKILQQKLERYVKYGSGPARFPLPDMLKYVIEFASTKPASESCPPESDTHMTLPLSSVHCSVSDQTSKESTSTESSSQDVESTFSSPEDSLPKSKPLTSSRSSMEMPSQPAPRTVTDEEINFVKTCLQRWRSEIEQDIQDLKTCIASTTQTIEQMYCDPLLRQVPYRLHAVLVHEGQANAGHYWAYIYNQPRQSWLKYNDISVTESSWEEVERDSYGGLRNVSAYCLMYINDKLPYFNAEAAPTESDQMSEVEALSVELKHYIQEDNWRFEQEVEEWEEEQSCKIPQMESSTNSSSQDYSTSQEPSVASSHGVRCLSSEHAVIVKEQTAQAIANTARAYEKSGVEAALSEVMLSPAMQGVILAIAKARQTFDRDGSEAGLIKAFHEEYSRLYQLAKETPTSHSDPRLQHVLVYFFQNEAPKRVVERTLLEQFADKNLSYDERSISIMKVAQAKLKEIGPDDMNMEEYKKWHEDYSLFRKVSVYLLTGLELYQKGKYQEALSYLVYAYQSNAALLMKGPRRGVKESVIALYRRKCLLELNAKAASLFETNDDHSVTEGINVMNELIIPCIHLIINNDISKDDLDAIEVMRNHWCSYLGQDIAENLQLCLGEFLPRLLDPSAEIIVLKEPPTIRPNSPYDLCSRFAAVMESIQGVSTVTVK
Assay type: biochemical
Experimental: Example A-1(b): Biochemical Assay: Ubiquitin-Rhodamine 110 Assay for USP28 Activity
Each assay was performed in a final volume of 20 μL in assay buffer containing 20 mM Tris-HCl (pH 8.0, (1M Tris-HCl, pH 8.0 solution; Corning 46-031-CM)), 2 mM CaCl2) (1M Calcium Chloride solution; Sigma #21114) 2 mM BME (2-Mercaptoethanol; Sigma 63689-25ML-F), 0.01% Prionex ([…] filtered, Sigma #G-0411), and 0.01% Triton X-100. Stock compound solutions were stored at −20° C. as 10 mM in DMSO. Up to 1 month prior to the assay, 2 mM test compounds were pre-dispensed into assay plates (Black, low volume; Corning #3820) and frozen at −20° C. Prestamped assay plates were allowed to come to room temperature on the day of the assay. For the screen, 100 nL of 2 mM was pre-dispensed for a final screening concentration of 10 μM (DMSO(fc)=0.5%). […] Plates were incubated stacked for 90 minutes at room temperature before fluorescence was read on the Envision (Excitation at 485 nm and Emission at 535 nm; Perkin Elmer) or on the PheraSTAR (Excitation at 485 nm and Emission at 535 nm; BMG Labtech).
For follow-up studies, each assay was performed in a final volume of 15 μL in assay buffer containing 20 mM Tris-HCl (pH 8.0, (1M Tris-HCl, pH 8.0 solution; Corning 46-031-CM)), 3 mM BME (2-Mercaptoethanol; Sigma 63689-25ML-F), 0.03% BGG (0.22 μM filtered, Sigma, G7516-25G), and 0.01% Triton X-100 (Sigma, T9284-10L). Nanoliter quantities of either an 8-point or 10-point, 3-fold serial dilution in DMSO was pre-dispensed into assay plates (Perkin Elmer, ProxiPlate-384 F Plus, #) for a final test concentration of either 25 μM to 11 nM or 25 μM to 1.3 nM, respectively. Enzyme USP28, construct USP28 (USP28-5(1-1077)-TEV-6*His; LifeSensors) concentration and incubation times were optimized for the maximal signal-to-background while maintaining initial velocity conditions at a fixed substrate concentration. The final concentration of the enzyme in the assay was 75 pM. Final substrate (Ub-Rh110; Ubiquitin-Rhodamine 110, R&D Systems #U-555) concentration was 25 nM with [Ub-Rh110]<<Km. 5 μL of 2× enzyme was added to assay plates (pre-stamped with compound) preincubated with USP28 for 30 minutes and then 5 μL of 2×Ub-Rh110 was added to assay plates. Plates were incubated stacked for 20 minutes at room temperature before 5 μL of stop solution was added (final concentration of 10 mM citric acid (Sigma, 251275-500G)). Fluorescence was read on the Envision (Excitation at 485 nm and Emission at 535 nm; Perkin Elmer) or on the PheraSTAR (Excitation at 485 nm and Emission at 535 nm; BMG Labtech).
For assay formats Example A-1(a), A-1(b), and A-2, data were reported as percent inhibition compared with control wells based on the following equation: % inh=1−((FLU−AveLow)/(AveHigh−AveLow)) where FLU=measured Fluorescence, AveLow=average Fluorescence of no enzyme control (n=16), and AveHigh=average Fluorescence of DMSO control (n=16). IC50 values were determined by curve fitting of the standard 4 parameter logistic fitting algorithm included in the Activity Base software package: IDBS XE Designer Model 205. Data is fitted using the Levenburg Marquardt algorithm.

| Structure (SMILES) | USP28 A-1(b) IC50 range |
| --- | --- |
| Cc1ccc2c(N)c(C(=O)N[C@H]3COc4cc(N5CC6CCC(C5)N6)cc(F)c4C3)sc2n1 (single isomer, unassigned) [Example 1-29] | +++ (0.05-0.2 μM) |

Same assay, conditions: Ubiquitin-Rhodamine 110 assay, Example A-1(b)

| Structure (SMILES) | USP28 A-1(b) IC50 range |
| --- | --- |
| Cc1ccc2c(N)c(C(=O)N[C@H]3COc4cc(N5CCNCC5)ccc4[C@H]3C)sc2n1 (single isomer, unassigned) [Example 11-15] | + (>2 μM) |
| Cc1ccc2c(N)c(C(=O)N[C@H]3COc4cc(N5CCNCC5)ccc4[C@@H]3C)sc2n1 (single isomer, unassigned) [Example 11-16] | + (>2 μM) |
| Cc1cnc2c(N)c(C(=O)N[C@H]3CCc4cc(N5CCNCC5)ccc4C3)sc2n1 (single isomer, unassigned) [Example 11-19] | ++ (0.2-2 μM) |
| Cc1cnc2c(N)c(C(=O)N[C@@H]3CCc4cc(N5CCNCC5)ccc4C3)sc2n1 (single isomer, unassigned) [Example 11-20] | + (>2 μM) |
| Cc1ccc2c(N)c(C(=O)N[C@H]3CCc4cc(N5CCNCC5)ccc4C3)sc2n1 (single isomer, unassigned) [Example 11-21] | ++ (0.2-2 μM) |
| Cc1ccc2c(N)c(C(=O)N[C@@H]3CCc4cc(N5CCNCC5)ccc4C3)sc2n1 (single isomer, unassigned) [Example 11-22] | ++ (0.2-2 μM) |
| CN[C@H]1CCN(c2ccc3c(c2)CC[C@H](NC(=O)c2sc4nc(C)cnc4c2N)C3)C1 (single isomer, unassigned) [Example 11-25] | ++ (0.2-2 μM) |
| CN[C@H]1CCN(c2ccc3c(c2)CC[C@@H](NC(=O)c2sc4nc(C)cnc4c2N)C3)C1 (single isomer, unassigned) [Example 11-26] | + (>2 μM) |
| CN[C@@H]1CCN(c2ccc3c(c2)CC[C@H](NC(=O)c2sc4nc(C)cnc4c2N)C3)C1 (single isomer, unassigned) [Example 11-27] | ++ (0.2-2 μM) |
| CN[C@@H]1CCN(c2ccc3c(c2)CC[C@@H](NC(=O)c2sc4nc(C)cnc4c2N)C3)C1 (single isomer, unassigned) [Example 11-28] | + (>2 μM) |
| Cc1cnc2c(N)c(C(=O)N[C@H]3CCc4cc(N5C[C@@H]6C[C@H]5CN6)ccc4C3)sc2n1 (single isomer, unassigned) [Example 11-29] | ++ (0.2-2 μM) |
| Cc1ccc2c(N)c(C(=O)N[C@H]3CCc4cc(N5CC6CNCC(C5)O6)ccc4C3)sc2n1 (single isomer, unassigned) [Example 449] | ++ (0.2-2 μM) |
| Cc1ccc2c(N)c(C(=O)N[C@H]3COc4cc(N5CCNC6(COC6)C5)ccc4C3)sc2n1 [Example 4-1, (R)—N-(7-(2-oxa-5,8-diazaspiro[3.5]nonan-8-yl)chroman-3-yl)-3-amino-6-methylthieno[2,3-b]pyridine-2-carboxamide] | ++ (0.2-2 μM) |
| Cc1ccc2c(N)c(C(=O)N[C@@H]3COc4cc(N5C[C@@H]6CNC[C@H]6C5)ccc4C3)sc2n1 [Example 42, 3-amino-((S)-7-((3aS,6aS)-hexahydropyrrolo[3,4-c]pyrrol-2(1H)-yl)chroman-3-yl)-6-methylthieno[2,3-b]pyridine-2-carboxamide] | ++ (0.2-2 μM) |

Same assay, conditions: Ubiquitin-Rhodamine 110 assay, format Example A-1(b)

| Structure (SMILES) | USP28 A-1(b) IC50 range |
| --- | --- |
| Cc1cnc2c(N)c(C(=O)N[C@@H]3CCc4cc(N5C[C@@H]6C[C@H]5CN6)ccc4C3)sc2n1 (single isomer, unassigned) [Example 11-30] | ++ (0.2-2 μM) |
| Cc1cnc2c(N)c(C(=O)N[C@H]3CCc4cc(N5C[C@H]6C[C@@H]5CN6)ccc4C3)sc2n1 (single isomer, unassigned) [Example 11-31] | ++ (0.2-2 μM) |
| Cc1cnc2c(N)c(C(=O)N[C@@H]3CCc4cc(N5C[C@H]6C[C@@H]5CN6)ccc4C3)sc2n1 (single isomer, unassigned) [Example 11-32] | ++ (0.2-2 μM) |
| Cc1nc2sc(C(=O)N[C@@H]3CCc4cc(N5CCNCC5)ccc4C3)c(N)c2s1 (single isomer, unassigned) [Example 11-34] | ++ (0.2-2 μM) |
| Cc1cnc2c(N)c(C(=O)N[C@@H]3CCc4cc(N5CCNCC5)cc(F)c4C3)sc2n1 (single isomer, unassigned) [Example 11-37] | + (>2 μM) |
| Cc1cnc2c(N)c(C(=O)N[C@H]3CCc4cc(N5CCNCC5)cc(F)c4C3)sc2n1 (single isomer, unassigned) [Example 11-38] | +++ (0.05-0.2 μM) |
| Cc1ccc2c(N)c(C(=O)N[C@H]3CCc4cc(N5CC6CNCC(C5)O6)cc(F)c4C3)sc2n1 (single isomer, unassigned) [Example 11-39] | ++ (0.2-2 μM) |
| Cc1ccc2c(N)c(C(=O)N[C@@H]3CCc4cc(N5CC6CNCC(C5)O6)cc(F)c4C3)sc2n1 (single isomer, unassigned) [Example 11-40] | ++++ (0.001-0.05 μM) |
| Cc1ccc2c(N)c(C(=O)N[C@@H]3CCc4c(C#N)c(N5CCNCC5)cc(F)c4C3)sc2n1 [Example 14-9, (R)-3-amino-N-(5-cyano-8-fluoro-6-(piperazin-1-yl)-1,2,3,4-tetrahydronaphthalen-2-yl)-6-methylthieno[2,3-b]pyridine-2-carboxamide] | + (>2 μM) |
| Cc1ccc2c(N)c(C(=O)N[C@H]3CCc4c(C#N)c(N5CCNCC5)cc(F)c4C3)sc2n1 [Example 14-10, (S)-3-amino-N-(5-cyano-8-fluoro-6-(piperazin-1-yl)-1,2,3,4-tetrahydronaphthalen-2-yl)-6-methylthieno[2,3-b]pyridine-2-carboxamide] | +++ (0.05-0.2 μM) |
| Cc1cnc2c(N)c(C(=O)N[C@@H]3CCc4c(C#N)c(N5CCNCC5)cc(F)c4C3)sc2n1 [Example 14-11, (R)-7-amino-N-(5-cyano-8-fluoro-6-(piperazin-1-yl)-1,2,3,4-tetrahydronaphthalen-2-yl)-3-methylthieno[2,3-b]pyrazine-6-carboxamide] | ++ (0.2-2 μM) |

Reference: patent US11524966B1 (Valo Early Discovery, Inc., priority 2017, dated 2022)
